Laboratory results: ChEMBL document CHEMBL1671688, “Raltegravir penetration in seminal plasma of healthy volunteers” (Antimicrob Agents Chemother, 2010)

How the values were obtained:
Format in all cases: ADME, organism-based
[1] = Drug level in semen of healthy human at […] administered twice daily measured after 2 to 4 hrs by HPLC; details: in vivo
[2] = Ratio of drug level in semen to blood in healthy human at […] administered twice daily measured 5 hrs post dosing by HPLC; details: male
[3] = Drug level in semen of healthy human at […] administered twice daily measured 5 hrs post dosing by HPLC; details: male, read-out: Drug uptake
[4] = Drug level in semen of healthy human at […] administered twice daily measured on day 5 by HPLC; details: male, read-out: Drug uptake
[5] = Ratio of drug level in semen to blood in healthy human at […] administered twice daily measured after 2 to 4 hrs by HPLC; details: male
[6] = Drug level in blood of healthy human at […] administered twice daily measured on day 5 by HPLC; details: read-out: Drug uptake
Blood = assay: Drug level in blood of healthy human at […] administered twice daily measured after 2 to 4 hrs by HPLC; details: in vivo
[7] = Ratio of drug level in semen to blood in healthy human at […] administered twice daily measured on day 5 by HPLC; details: male

Drug uptake [1]: 953 ng/mL
Kp at 5 h [2]: 1.42
concentration at 5 h [3]: 345 ng/mL
concentration at 5 day [4]: 212 ng/mL
Kp [5]: 1.62
concentration at 5 day [6]: 51 ng/mL
Drug uptake (Blood): 651 ng/mL
Kp at 5 day [7]: 3.78
SMILES: Cc1nnc(C(=O)NC(C)(C)c2nc(C(=O)NCc3ccc(F)cc3)c(O)c(=O)n2C)o1 [RALTEGRAVIR]
